Source: US11866430B2, “Naphthyridinone compounds useful as T cell activators” (priority 2018, dated 2024)
Where two headings read alike, the source gives them in different places.

Experiments:
[1] = test system: OT-1 antigen-specific CD8+ T cells with MC38 tumor cells; experiment: Murine Cytotoxic T Lymphocyte Assay (IFN-γ); format: cell-based, mouse
From the text: An antigen-specific cytolytic T-cell (CTL) assay was developed to evaluate functionally the ability of DGKα and DGKζ inhibitors to enhance effector T cell mediated tumor cell killing activity. CD8+ T-cells isolated from the OT-1 transgenic mouse recognize antigen presenting cells, MC38, that present the ovalbumin derived peptide […]. Recognition of the cognate antigen initiates the cytolytic activity of the OT-1 antigen-specific CD8+ T cells.
Functional CTL cells were generated as follows: OT-1 splenocytes from 8-12 week old mice were isolated and expanded in the presence of the […] peptide at 1 μg/mL and mIL2 at 10 U/mL. After three days, fresh media with mIL2 U/mL was added. On day 5 of the expansion, the CD8+ T cells were isolated and ready for use. Activated CTL cells may be stored frozen for 6 months. […] The cells were washed (3×) with fresh media to remove excess peptide. Finally, CTL cells that were pretreated with DGK inhibitors for 1 hour in a 96-well U bottom plate were combined with the antigen loaded MC38 tumor cells at a 1:10 ratio. The cells were then spun at 700 rpm for 5 min and placed in an incubator overnight at 37° C. After 24 hours, the supernatant was collected for analysis of IFN-γ cytokine levels by AlphaLisa purchased from Perkin Elmer.

human DGKζ = human DGKζ (Homo sapiens (Human), UniProt Q13574); experiment: DGKζ assay (detergent/lipid micelle substrate); format: biochemical; conditions: detergent/lipid micelle substrate; read-out: DGKζ IC50
Method in brief: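 Full-length human DGKα or DGKζ (C-terminal His tag, Sf9-expressed; 20 nM 4× stock) was preincubated 10 min at room temperature with PS/DAG octyl glucoside micelles in MOPS pH 7.5 buffer with MgCl2, CaCl2 and DTT. It was then started with ATP (300 uM addition) and run for 1 hr, with ADP-Glo luminescence read-out.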

[2] = test system: Jurkat AP1-luciferase Reporter; experiment: DGK AP1-Reporter Assay; format: cell-based
Method in brief: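 Jurkat cells carrying a lentiviral AP1-luciferase reporter received 30 nl compound per well for 20 min at 37 °C and 5% CO2. They were then stimulated for 6 h with anti-CD3 solution at 0.4 μg/mL; reference wells received 4 μg/mL and unstimulated wells medium only. Readout was Steady-Glo luciferase luminescence (RLU).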

[3] = read-out: msCTL INF-γ IC50, murine CTL IFN-γ (table title reads INF-γ Whole Blood Normalized Agonist EC50)
[4] = Homo sapiens, Jurkat, read-out: DGKAP1 Lucif Reporter IC50, Table 4
[5] = Mus musculus, MC-38, read-out: msCTL INF-γ IC50, murine CTL IFN-γ (table title reads INF-γ Whole Blood Normalized Agonist EC50)

Chain of human DGKζ (Q13574 other isoform, or with tags, fused parts or gaps): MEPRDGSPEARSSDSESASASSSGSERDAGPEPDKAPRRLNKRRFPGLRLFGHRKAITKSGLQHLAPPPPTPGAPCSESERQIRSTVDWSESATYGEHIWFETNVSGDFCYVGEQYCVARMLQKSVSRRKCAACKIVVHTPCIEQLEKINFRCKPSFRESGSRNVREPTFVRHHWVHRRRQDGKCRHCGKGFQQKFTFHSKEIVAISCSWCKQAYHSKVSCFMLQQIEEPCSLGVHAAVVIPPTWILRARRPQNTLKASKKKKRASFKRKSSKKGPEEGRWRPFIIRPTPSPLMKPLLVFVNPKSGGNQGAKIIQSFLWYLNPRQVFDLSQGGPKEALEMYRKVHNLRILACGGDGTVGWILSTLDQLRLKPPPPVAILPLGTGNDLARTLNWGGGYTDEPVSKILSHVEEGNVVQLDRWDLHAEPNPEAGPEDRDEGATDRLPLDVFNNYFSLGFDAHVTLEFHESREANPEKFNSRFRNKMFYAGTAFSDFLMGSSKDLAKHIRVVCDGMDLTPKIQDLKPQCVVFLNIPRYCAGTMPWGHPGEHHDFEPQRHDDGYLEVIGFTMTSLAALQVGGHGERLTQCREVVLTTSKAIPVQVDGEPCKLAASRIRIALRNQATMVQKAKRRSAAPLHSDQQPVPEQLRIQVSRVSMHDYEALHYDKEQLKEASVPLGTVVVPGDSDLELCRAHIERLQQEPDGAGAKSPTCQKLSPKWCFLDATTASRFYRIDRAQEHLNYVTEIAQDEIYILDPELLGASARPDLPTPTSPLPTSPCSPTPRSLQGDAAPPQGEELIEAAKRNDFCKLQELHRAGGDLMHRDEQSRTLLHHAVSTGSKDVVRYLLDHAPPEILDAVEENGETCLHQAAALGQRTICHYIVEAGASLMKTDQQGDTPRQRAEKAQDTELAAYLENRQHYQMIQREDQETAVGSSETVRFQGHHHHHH

Structure (SMILES)	IC50 (human DGKζ)	IC50 [2, 4]	also measured
COc1cc(F)ccc1C(c1ccc(F)cc1)N1CCN(c2c(C#N)c(=O)n(C)c3ccc(C#N)nc23)CC1 (single isomer, unassigned) [Example 406, 8-{4-[(4-fluoro-2-methoxyphenyl)(4-fluorophenyl)methyl]piperazin-1-yl}-5-methy-6-oxo-5,6-dihydro-L5-naphthyridine-2,7-dicarbonitrile]			IC50 [1, 3]: 0.16 µM
CC(c1ccc(F)cc1)N1CCN(c2c(C#N)c(=O)n(C)c3ccc(Cl)nc23)CC1 (single isomer, unassigned) [Example 388, 6-chloro-4-{4-[1-(4-fluorophenyl)ethyl]piperazin-1-yl}-1-methyl-2-oxo-1,2-dihydro-1,5-naphthyridine-3-carbonitrile]	> 240 µM		IC50 ([2]; read-out: DGKAP1 Lucif Reporter IC50, Table 4): 3.33 µM
Cn1c(=O)c(C#N)c(N2CCN(C(c3ccc(F)cc3)C3CCC3)CC2)c2nc(Cl)ccc21 (single isomer, unassigned) [Example 382, 6-chloro-4-{4-[cyclobutyl(4-fluorophenyl)methyl]piperazin-1-yl}-1-methyl-2-oxo-1,2-dihydro-1,5-naphthyridine-3-carbonitrile]		10 µM	
Cn1c(=O)c(C#N)c(N2CCN(C(c3ccc(F)cc3)c3ccccc3O)CC2)c2nc(C#N)ccc21 (centres unmarked) [Example 11, 8-{4-[(4-fluorophenyl)(2-hydroxyphenyl)methyl]piperazin-1-yl}-5-methyl-6-oxo-5,6-dihydro-1,5-naphthyridine-2,7-dicarbonitrile]	4 µM		IC50 ([2]; Homo sapiens, Jurkat, read-out: API-Luciferase Reporter IC50, Table 3): 0.08 µM
CC(c1ccc(F)cc1)N1CCN(c2c(C#N)c(=O)n(C)c3ccc(Cl)nc23)CC1 (single isomer, unassigned) [Example 387, 6-chloro-4-{4-[1-(4-fluorophenyl)ethyl]piperazin-1-yl}-1-methyl-2-oxo-1,2-dihydro-1,5-naphthyridine-3-carbonitrile]	> 240 µM	3.33 µM	
CC(C)C(c1ccc(F)cc1)N1CCN(c2c(C#N)c(=O)n(C)c3ccc(Cl)nc23)CC1 (single isomer, unassigned) [Example 315, 6-chloro-4-{4-[1-(4-fluorophenyl)-2-methylpropyl]piperazin-1-yl}-methyl-2-oxo-1,2-dihydro-1,5-naphthyridine-3-carbonitrile]	> 240 µM	10 µM	
COc1cc(F)ccc1C(c1ccc(F)cc1)N1CCN(c2c(C#N)c(=O)n(C)c3ccc(C#N)nc23)CC1 (single isomer, unassigned) [Example 407, 8-{4-[(4-fluoro-2-methoxyphenyl)(4-fluorophenyl)methyl]piperazin-1-yl}-5-methy-6-oxo-5,6-dihydro-L5-naphthyridine-2,7-dicarbonitrile]			IC50 [1, 3]: 0.04 µM
Cn1c(=O)c(C#N)c(N2CCN(C(C)(C)c3ccc(F)cc3)CC2)c2nc(Cl)ccc21 [Example 425, 6-chloro-4-{4-[2-(4-fluorophenyl)propan-2-yl]piperazin-1-yl}-1-methyl-2-oxo-1,2-dihydro-1,5-naphthyridine-3-carbonitrile]	> 240 µM		IC50 [1, 5]: 2.98 µM
Cn1c(=O)c(C#N)c(N2CCN(C(CC(C)(C)C)c3ccc(F)cc3)CC2)c2nc(Cl)ccc21 (single isomer, unassigned) [Example 377, 6-chloro-4-{4-[1-(4-fluorophenyl)-3,3-dimethylbutyl]piperazin-1-yl}-1-methyl-2-oxo-1,2-dihydro-1,5-naphthyridine-3-carbonitrile]		10 µM	
COc1ccc2c(n1)c(N1CCN(C(c3ccc(F)cc3)c3ccc(F)cc3OC)CC1)c(C#N)c(=O)n2C (racemic) [Example 412, 4-{4-[(4-fluoro-2-methoxyphenyl)(4-fluorophenyl)methyl]piperazin-1-yl}-6-methoxy-1-methyl-2-oxo-1,2-dihydro-1,5-naphthyridine-3-carbonitrile]			IC50 [1, 5]: 0.36 µM
Cn1c(=O)c(C#N)c(N2CCN(Cc3cccc4ccccc34)CC2)c2nc(C#N)ccc21 [Example 404, 5-methyl-8-{4-[(naphthalen-1-yl)methyl]piperazin-1-yl}-6-oxo-5,6-dihydro-1,5-naphthyridine-2,7-dicarbonitrile]	63 µM		IC50 [1, 5]: 9.84 µM
